Test results taken from PubChem BioAssay AID2060899 (Molecular Pharmacology Branch, DTP, NCI, 2025).
pIC50: −log10 of the molar value.

Test system: 565726-208-R1-J5-PDC complex spheroids, growth inhibition
Assay: Anticancer human tumor 565726-208-R1-J5-PDC patient-derived pancreatic adenocarcinoma cell line growth inhibition [RAS]
Settings: for pIC50: curve of first compound; for viability, T/C: stronger effect = lower value
Outline: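 Tumour cells grown as complex spheroids with HUVEC endothelial cells and mesenchymal stem cells, treated with RAS pathway inhibitor combinations. Each agent spans half-log steps from near clinical Cmax, or 10 microM where Cmax is unknown.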

[1] = second compound 0.000949 µM, first compound 0.0316 µM
[2] = second compound 0.000949 µM, first compound 0.1 µM
[3] = second compound 0.000949 µM, first compound 0.316 µM
[4] = second compound 0.000949 µM, first compound 1 µM
[5] = second compound 0.003 µM, first compound 0.0316 µM
[6] = second compound 0.003 µM, first compound 0.1 µM
[7] = second compound 0.003 µM, first compound 0.316 µM
[8] = second compound 0.003 µM, first compound 1 µM
[9] = second compound 0.00949 µM, first compound 0.0316 µM
[10] = second compound 0.00949 µM, first compound 0.1 µM
[11] = second compound 0.00949 µM, first compound 0.316 µM
[12] = second compound 0.00949 µM, first compound 1 µM
[13] = second compound 0.03 µM, first compound 0.0316 µM
[14] = second compound 0.03 µM, first compound 0.1 µM
[15] = second compound 0.03 µM, first compound 0.316 µM
[16] = second compound 0.03 µM, first compound 1 µM
[17] = second compound 0.0949 µM, first compound 0.0316 µM
[18] = second compound 0.0949 µM, first compound 0.1 µM
[19] = second compound 0.0949 µM, first compound 0.316 µM
[20] = second compound 0.0949 µM, first compound 1 µM
[21] = second compound 0.3 µM, first compound 0.0316 µM
[22] = second compound 0.3 µM, first compound 0.1 µM
[23] = second compound 0.3 µM, first compound 0.316 µM
[24] = second compound 0.3 µM, first compound 1 µM
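Also: spheroids exposed to compounds for seven days before readout.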
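For viability, T/C in this document: 100% = DMSO vehicle control viability.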

`NC1c2ccccc2OC12CCN(c1cnc3c(N4CCCc5ncccc54)n[nH]c3n1)CC2` (centres undefined) + CCn1c(-c2cc(N3CCN(C)CC3)cnc2C(C)OC)c2c3cc(ccc31)-c1csc(n1)CC(NC(=O)C1CC1C)C(=O)N1CCCC(N1)C(=O)OCC(C)(C)C2 was tested, and the pIC50 (second compound 0.000949 µM) was 7.35, the pIC50 (second compound 0.003 µM) was > 7.50 and the pIC50 (second compound 0.00949 µM) was > 7.50. For the same compound, the pIC50 (second compound 0.03 µM) was > 7.50, the pIC50 (second compound 0.0949 µM) was > 7.50 and the pIC50 (second compound 0.3 µM) was > 7.50. It also gave a viability, T/C [1] of 53.3%, a viability, T/C [2] of 42.6% and a viability, T/C [3] of 24.9%. It also gave a viability, T/C [4] of 23.5%, a viability, T/C (second compound 0.000949 µM, first compound 3.16 µM) of 17.5% and a viability, T/C (second compound 0.000949 µM, first compound 10 µM) of 21.3%. The viability, T/C [5] was 36.7%, the viability, T/C [6] was 27.4% and the viability, T/C [7] was 19.8%. The viability, T/C [8] was 14.2%, the viability, T/C (second compound 0.003 µM, first compound 3.16 µM) was 16.9% and the viability, T/C (second compound 0.003 µM, first compound 10 µM) was 16.4%. For the same compound, the viability, T/C [9] was 28.7%, the viability, T/C [10] was 21% and the viability, T/C [11] was 16.8%. It also gave a viability, T/C [12] of 13.7%, a viability, T/C (second compound 0.00949 µM, first compound 3.16 µM) of 14.5% and a viability, T/C (second compound 0.00949 µM, first compound 10 µM) of 14%. For the same compound, the viability, T/C [13] was 21.4%, the viability, T/C [14] was 18% and the viability, T/C [15] was 13.5%. The viability, T/C [16] was 13%, the viability, T/C (second compound 0.03 µM, first compound 3.16 µM) was 12.9% and the viability, T/C (second compound 0.03 µM, first compound 10 µM) was 14.5%. For the same compound, the viability, T/C [17] was 19.4%, the viability, T/C [18] was 17% and the viability, T/C [19] was 15.5%. For the same compound, the viability, T/C [20] was 13.7%, the viability, T/C (second compound 0.0949 µM, first compound 3.16 µM) was 11.8% and the viability, T/C (second compound 0.0949 µM, first compound 10 µM) was 13.9%. The viability, T/C [21] was 17.5%, the viability, T/C [22] was 13.5% and the viability, T/C [23] was 13.6%. The viability, T/C [24] was 13.1%, the viability, T/C (second compound 0.3 µM, first compound 3.16 µM) was 12% and the viability, T/C (second compound 0.3 µM, first compound 10 µM) was 13.8%.
`Nc1ccn(C2OC(CO)C(O)C2(F)F)c(=O)n1` (centres undefined) + CCn1c(-c2cc(N3CCN(C)CC3)cnc2C(C)OC)c2c3cc(ccc31)-c1csc(n1)CC(NC(=O)C1CC1C)C(=O)N1CCCC(N1)C(=O)OCC(C)(C)C2 was tested, and the pIC50 (second compound 0.000949 µM) was 7.66, the pIC50 (second compound 0.003 µM) was 8.14 and the pIC50 (second compound 0.00949 µM) was > 8.50. The pIC50 (second compound 0.03 µM) was > 8.50, the pIC50 (second compound 0.0949 µM) was > 8.50 and the pIC50 (second compound 0.3 µM) was > 8.50. It also gave a viability, T/C (second compound 0.000949 µM, first compound 0.00316 µM) of 63.3%, a viability, T/C (second compound 0.000949 µM, first compound 0.01 µM) of 54.7% and a viability, T/C [1] of 49.9%. For the same compound, the viability, T/C [2] was 34.4%, the viability, T/C [3] was 35% and the viability, T/C [4] was 27.8%. The viability, T/C (second compound 0.003 µM, first compound 0.00316 µM) was 56.7%, the viability, T/C (second compound 0.003 µM, first compound 0.01 µM) was 46.3% and the viability, T/C [5] was 40.4%. It also gave a viability, T/C [6] of 33.6%, a viability, T/C [7] of 33.1% and a viability, T/C [8] of 24.3%. It also gave a viability, T/C (second compound 0.00949 µM, first compound 0.00316 µM) of 38.8%, a viability, T/C (second compound 0.00949 µM, first compound 0.01 µM) of 42.1% and a viability, T/C [9] of 34.2%. It also gave a viability, T/C [10] of 29.1%, a viability, T/C [11] of 28.3% and a viability, T/C [12] of 23.7%. It also gave a viability, T/C (second compound 0.03 µM, first compound 0.00316 µM) of 28.9%, a viability, T/C (second compound 0.03 µM, first compound 0.01 µM) of 31.7% and a viability, T/C [13] of 24.4%. For the same compound, the viability, T/C [14] was 22.1%, the viability, T/C [15] was 24.1% and the viability, T/C [16] was 21.7%. The viability, T/C (second compound 0.0949 µM, first compound 0.00316 µM) was 25.4%, the viability, T/C (second compound 0.0949 µM, first compound 0.01 µM) was 26.9% and the viability, T/C [17] was 23.1%. It also gave a viability, T/C [18] of 21.1%, a viability, T/C [19] of 19.1% and a viability, T/C [20] of 18.9%. For the same compound, the viability, T/C (second compound 0.3 µM, first compound 0.00316 µM) was 22.3%, the viability, T/C (second compound 0.3 µM, first compound 0.01 µM) was 25.2% and the viability, T/C [21] was 23.3%. It also gave a viability, T/C [22] of 20.9%, a viability, T/C [23] of 22.2% and a viability, T/C [24] of 19%.
